18 compounds from patent publication US9839642B2, “Beta-tetrazolyl-propionic acids as metallo-beta-lactamase inhibitors” (priority 2014, dated 2017) can be followed below.

In test [1] the test system is Klebsiella pneumoniae expressing VIM-1 (IHMA599644). The experiment in a line: Antibiotic potentiation activity: synergistic concentration (MITC95) with imipenem, growth by OD600. The class given is cell-based. The settings on record: 95% inhibition of bacterial growth, strain IHMA599644. The method in brief: (§1)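 Colonies from overnight agar plates (35 °C) were suspended in saline and diluted 1:100 into 1.1× CAMHB. Inhibitor (final 200 μM to 0.195 μM) was combined with imipenem at 1 or 4 μg/ml, incubated 22–24 h at 35 °C, and absorbance read; MITC95 is the lowest inhibitor concentration giving 95% growth inhibition.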

The test system of test [2] is Serratia marcescens expressing IMP-1 (CL5741). Described as above. The format is cell-based. The settings on record: 95% inhibition of bacterial growth, strain CL5741. The method in brief:
as §1

The test system of test [3] is Escherichia coli expressing NDM-1 (CLB30016). The test is described as above. The class given is cell-based. The settings on record: 95% inhibition of bacterial growth, strain CLB30016. A digest of the protocol: as §1
In test [4] the target is IMP-1 (Serratia marcescens, UniProt P52699). Nature of the test: Enzyme activity: determination of IC50, fluorescence assay with CCF2-FA substrate. The class given is biochemical. As to conditions: enzyme 2 pM, CCF2-FA 1.25 μM, 2 hours at 25° C.; read-out: IMP1 IC50. The method in brief: (§2)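 Final enzyme levels differed by target: 1 pM NDM-1, 2 pM IMP-1, 30 pM VIM-1. Each was incubated 2 hours at 25° C with test compound and 1.25 μM CCF2-FA, and 460 nm fluorescence (405 nm excitation) was fitted by 4-parameter curve to obtain IC50.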

In test [5] the target is NDM-1 (Klebsiella pneumoniae, UniProt C7C422). Described as above. The class given is biochemical. As to conditions: enzyme 1 pM, CCF2-FA 1.25 μM, 2 hours at 25° C.; read-out: NDM1 IC50. The method in brief: as §2
The target in test [6] is VIM-1 (Pseudomonas aeruginosa, UniProt A0A0F7KYQ8). The description is as above. The settings on record: enzyme 30 pM, CCF2-FA 1.25 μM, 2 hours at 25° C.; read-out: VIM1 IC50. The class given is biochemical. A digest of the protocol: as §2

Chain of IMP-1 (P52699 19-246, looked up, species assumed): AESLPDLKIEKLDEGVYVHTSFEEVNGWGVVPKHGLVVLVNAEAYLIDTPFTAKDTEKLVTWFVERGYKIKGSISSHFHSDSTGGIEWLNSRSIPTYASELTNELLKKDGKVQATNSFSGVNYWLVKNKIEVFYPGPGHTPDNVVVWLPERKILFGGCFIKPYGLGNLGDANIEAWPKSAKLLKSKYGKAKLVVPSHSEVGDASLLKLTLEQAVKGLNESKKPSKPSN
Chain of NDM-1 (C7C422 29-270, looked up, species assumed): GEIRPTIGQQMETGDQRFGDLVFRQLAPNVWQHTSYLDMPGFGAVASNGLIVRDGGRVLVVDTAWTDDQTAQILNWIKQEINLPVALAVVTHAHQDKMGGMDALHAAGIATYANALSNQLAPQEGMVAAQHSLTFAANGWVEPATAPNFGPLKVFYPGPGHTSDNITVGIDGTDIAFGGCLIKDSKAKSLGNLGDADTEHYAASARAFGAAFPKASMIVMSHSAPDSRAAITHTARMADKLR

With `CC(C)[C@H](C(=O)O)[C@H](Cc1ccc(NC(CO)CO)nc1)c1nnn[nH]1` [Example 141, (2S,3S)-4-(6-((1,3-dihydroxypropan-2-yl)amino)pyridin-3-yl)-2-isopropyl-3-(1H-tetrazol-5-yl)butanoic acid], in test [1], the “VIM1 KP599644 MITC95” value was determined as 150 µM. Also, the “IMP1 SM5741 MITC95” value in test [2] was greater than 200 µM. Moreover, in test [3], the “NDM1 EC30016 MITC95” value was 12.5 µM. Moreover, the IC50 in test [4] was greater than 20000 nM; in test [5] it was 3600 nM; in test [6] it was 800 nM.

On to `CC(C)[C@H](C(=O)O)[C@H](Cc1ccc(OCC(N)CO)nc1)c1nnn[nH]1` (stereo partly drawn) [Example 142, (2S,3S)-4-(6-(2-amino-3-hydroxypropoxy)pyridin-3-yl)-2-isopropyl-3-(1H-tetrazol-5-yl)butanoic acid], for which, in test [1], the “VIM1 KP599644 MITC95” value is 25 µM. The “IMP1 SM5741 MITC95” value in test [2] turned out to be 50 µM. Moreover, the “NDM1 EC30016 MITC95” value in test [3] came to 3.1 µM. For the same compound, the IC50 was 5000 nM in test [4], 340 nM in test [5] and 130 nM in test [6].

For the compound `CCC[C@H](C(=O)O)[C@H](Cc1ccc(NCc2cc(OC)cc(OC)c2)nc1)c1nnn[nH]1` [Example 144, (S)-2-((S)-2-(6-((3,5-dimethoxybenzyl)amino)pyridin-3-yl)-1-(1H-tetrazol-5-yl)ethyl)pentanoic acid], the “VIM1 KP599644 MITC95” value in test [1] was determined as 200 µM. Moreover, the “IMP1 SM5741 MITC95” value in test [2] amounted to 62 µM. Further, the “NDM1 EC30016 MITC95” value in test [3] is 7.8 µM. In addition, the values for the IC50 in test [4], in test [5] and in test [6] were 370 nM, 16 nM and 15 nM, respectively.

Consider `CC(C)C[C@H](C(=O)O)[C@H](Cc1ccc(N2CCNCC2)c(F)c1)c1nn[nH]n1` [Example 146, (S)-2-((S)-2-(3-fluoro-4-(piperazin-1-yl)phenyl)-1-(2H-tetrazol-5-yl)ethyl)-4-methylpentanoic acid], for which the “VIM1 KP599644 MITC95” value in test [1] came to 15.6 µM. Moreover, the “IMP1 SM5741 MITC95” value in test [2] was determined as 5.5 µM. For the same compound, the “NDM1 EC30016 MITC95” value in test [3] came to 6.2 µM. Further, the values for the IC50 in test [4], in test [5] and in test [6] were 100 nM, 36 nM and 1.6 nM, respectively.

For the compound `CCC[C@H](C(=O)O)[C@H](Cc1ccc2ccc(N)nc2c1)c1nnn[nH]1` [Example 147, (S)-2-((S)-2-(2-aminoquinolin-7-yl)-1-(1H-tetrazol-5-yl)ethyl)pentanoic acid], the “VIM1 KP599644 MITC95” value in test [1] stood at 6.2 µM. In test [2], the “IMP1 SM5741 MITC95” value turned out to be 100 µM. The “NDM1 EC30016 MITC95” value in test [3] is 3.1 µM. In addition, the results for the IC50 in test [4], in test [5] and in test [6] were 4500 nM, 110 nM and 0.85 nM, respectively.

Regarding `CCC[C@H](C(=O)O)[C@H](Cc1ccc2ncc(N)cc2c1)c1nnn[nH]1` [Example 148, 3-amino-6-((2S,3S)-3-carboxy-2-(1H-tetrazol-5-yl)hexyl)quinolin-1-ium], the “VIM1 KP599644 MITC95” value in test [1] came out at 25 µM. For the same compound, the “IMP1 SM5741 MITC95” value in test [2] is 12.5 µM. Also, the “NDM1 EC30016 MITC95” value in test [3] was determined as 25 µM. In addition, the results for the IC50 in test [4], in test [5] and in test [6] were 400 nM, 25 nM and 0.94 nM, respectively.

As for `CCC[C@H](C(=O)O)[C@H](Cc1ccc(NCCS(N)(=O)=O)cn1)c1nnn[nH]1` [Example 149, 2-((2S,3S)-3-carboxy-2-(1H-tetrazol-5-yl)hexyl)-5-((2-sulfamoylethyl)amino)pyridin-1-ium], the “VIM1 KP599644 MITC95” value in test [1] came out at 18.8 µM. Besides, the “IMP1 SM5741 MITC95” value in test [2] turned out to be 38 µM. The “NDM1 EC30016 MITC95” value in test [3] was 0.39 µM. In addition, the IC50 in test [4] was 1600 nM; in test [5], 170 nM; in test [6], 98 nM.

Regarding `CCC[C@H](C(=O)O)[C@H](Cc1csc(N)n1)c1nnn[nH]1` [Example 150, 4-((2S,3S)-3-carboxy-2-(1H-tetrazol-5-yl)hexyl)thiazol-2-aminium], the “VIM1 KP599644 MITC95” value in test [1] was determined as 25 µM. In test [2], the “IMP1 SM5741 MITC95” value was greater than 200 µM. Also, in test [3], the “NDM1 EC30016 MITC95” value turned out to be 1.6 µM. In addition, the IC50 in test [4] was greater than 20000 nM; in test [5], 480 nM; in test [6], 300 nM.

For `CCC[C@H](C(=O)O)[C@H](Cc1ccc(NC)cn1)c1nnn[nH]1` [Example 151], in test [1], the “VIM1 KP599644 MITC95” value is 12.5 µM. In addition, in test [2], the “IMP1 SM5741 MITC95” value worked out at 100 µM. For the same compound, the “NDM1 EC30016 MITC95” value in test [3] is 0.39 µM. In addition, the IC50 in test [4] amounted to 7900 nM; in test [5], 300 nM; in test [6] it was 120 nM.

Take `CNc1ccc(C[C@H](c2nnn[nH]2)[C@@H](C(=O)O)C(C)C)cn1` [Example 152, (2S,3S)-2-isopropyl-4-(6-(methylamino)pyridin-3-yl)-3-(1H-tetrazol-5-yl)butanoic acid]: the “VIM1 KP599644 MITC95” value in test [1] stood at 6.2 µM. Moreover, the “IMP1 SM5741 MITC95” value in test [2] amounted to 38 µM. Also, in test [3], the “NDM1 EC30016 MITC95” value amounted to 0.39 µM. In addition, the IC50 in test [4] was determined as 5300 nM; in test [5] it was 62 nM; in test [6], 29 nM.

For the compound `CCC[C@H](C(=O)O)[C@H](Cc1ccc(C(F)(F)F)cc1)c1nnn[nH]1` [Example 153, (S)-2-((S)-1-(1H-tetrazol-5-yl)-2-(4-(trifluoromethyl)phenyl)ethyl)pentanoic acid], the “VIM1 KP599644 MITC95” value in test [1] came out at 25 µM. Also, in test [2], the “IMP1 SM5741 MITC95” value was found to be 25 µM. Further, the “NDM1 EC30016 MITC95” value in test [3] was 9.4 µM. Besides, the 50% inhibitory concentration (IC50) amounted to 510 nM in test [4], 58 nM in test [5] and 2.1 nM in test [6].

On to `CCC[C@H](C(=O)O)[C@H](Cc1ccccn1)c1nn[nH]n1` [Example 154, (S)-2-((S)-2-(pyridin-2-yl)-1-(1H-tetrazol-5-yl)ethyl)pentanoic acid], for which the “VIM1 KP599644 MITC95” value in test [1] was 25 µM. Besides, the “IMP1 SM5741 MITC95” value in test [2] came out at 100 µM. Besides, the “NDM1 EC30016 MITC95” value in test [3] amounted to 0.78 µM. The IC50 in test [4] was found to be 13000 nM; in test [5] it was 430 nM; in test [6] it was 140 nM.

For the compound `CCC[C@H](C(=O)O)[C@H](Cc1cccc2sc(N)nc12)c1nn[nH]n1` [Example 155, (S)-2-((S)-2-(2-aminobenzo[d]thiazol-4-yl)-1-(2H-tetrazol-5-yl)ethyl)pentanoic acid], in test [1], the “VIM1 KP599644 MITC95” value was determined as 18.8 µM. Moreover, the “IMP1 SM5741 MITC95” value in test [2] was 18.8 µM. Moreover, in test [3], the “NDM1 EC30016 MITC95” value came out at 16 µM. Moreover, the IC50 in test [4] is 290 nM; in test [5], 12 nM; in test [6], 7.3 nM.

In the case of `CCC[C@H](C(=O)O)[C@H](Cc1cnn2ncccc12)c1nnn[nH]1` [Example 156, (S)-2-((S)-2-(pyrazolo[1,5-b]pyridazin-3-yl)-1-(1H-tetrazol-5-yl)ethyl)pentanoic acid], the “VIM1 KP599644 MITC95” value in test [1] amounted to 25 µM. Moreover, the “IMP1 SM5741 MITC95” value in test [2] was greater than 200 µM. In addition, the “NDM1 EC30016 MITC95” value in test [3] is 31 µM. Also, the IC50 was found to be 5400 nM in test [4], 150 nM in test [5] and 1.5 nM in test [6].

In the case of `CCC[C@H](C(=O)O)[C@H](Cc1ccc(O)nc1)c1nnn[nH]1` [Example 157, (S)-2-((S)-2-(6-hydroxypyridin-3-yl)-1-(1H-tetrazol-5-yl)ethyl)pentanoic acid], the “VIM1 KP599644 MITC95” value in test [1] is 25 µM. Moreover, the “IMP1 SM5741 MITC95” value in test [2] is greater than 200 µM. Besides, the “NDM1 EC30016 MITC95” value in test [3] turned out to be 18.8 µM. The figures for the IC50 in test [4], in test [5] and in test [6] were 12000 nM, 730 nM and 8.5 nM, respectively.

On to `CCC[C@H](C(=O)O)[C@H](Cc1ccc(-c2ccc(C3(O)CNC3)cc2)nc1)c1nnn[nH]1` [Example 159, (2S)-2-[(1S)-2-{6-[4-(3-hydroxyazetidin-3-yl)phenyl]pyridin-3-yl}-1-(1H-tetrazol-5-yl)ethyl]pentanoic acid], for which the “VIM1 KP599644 MITC95” value in test [1] came to 50 µM. In addition, the “IMP1 SM5741 MITC95” value in test [2] amounted to 75 µM. In addition, the “NDM1 EC30016 MITC95” value in test [3] was found to be 12.5 µM. Besides, the IC50 in test [4] was 3700 nM; in test [5], 400 nM; in test [6], 23 nM.

For `CCC[C@H](C(=O)O)[C@H](Cc1ccc(-c2cnc(NC(C)=O)nc2)nc1)c1nn[nH]n1` [Example 160, (2S)-2-[(1S)-2-{6-[2-(acetylamino)pyrimidin-5-yl]pyridin-3-yl}-1-(1H-tetrazol-5-yl)ethyl]pentanoic acid], the “VIM1 KP599644 MITC95” value in test [1] was determined as 75 µM. The “IMP1 SM5741 MITC95” value in test [2] amounted to 50 µM. For the same compound, in test [3], the “NDM1 EC30016 MITC95” value stood at 38 µM. In addition, the results for the IC50 in test [4], in test [5] and in test [6] were 1600 nM, 50 nM and 5.7 nM, respectively.

Turning to `CCC[C@H](C(=O)O)[C@H](Cc1ccc(-c2cnc(N)nc2)nc1)c1nnn[nH]1` [Example 161, (2S)-2-[(1S)-2-[6-(2-aminopyrimidin-5-yl)pyridin-3-yl]-1-(1H-tetrazol-5-yl)ethyl]pentanoic acid], in test [1], the “VIM1 KP599644 MITC95” value is 50 µM. In test [2], the “IMP1 SM5741 MITC95” value is 18.8 µM. For the same compound, the “NDM1 EC30016 MITC95” value in test [3] turned out to be 18.8 µM. Moreover, the IC50 in test [4] came to 1100 nM; in test [5], 30 nM; in test [6] it was 3.3 nM.

By IC50 is commonly meant the midpoint of a concentration-inhibition curve.
